pKi: −log10 of the molar value. “Also recorded” adds a separate entry of the source.
Experiments:
[1] = target: T1, rat striatum adenosine A2A receptor (Rattus norvegicus, UniProt P30543); experiment: adenosine A2A receptor ligand binding test ([3H]MSX-2); conditions: rat striatum homogenate, 0.75 nM [3H]MSX-2, 25° C. 30 min; read-out: Ki value of competitive binding with the adenosine A2A receptor
T1 construct: from tissue; host or cells: Wistar rat striatum
Procedure: Using Wistar rat, head was cut and the brain was removed, and cerebral cortex and striatum were separated, respectively weighed, added into 10 fold volume of ice-cooled Tris-HCL buffer solution (50 mM, PH7.5) according to 1:10, the tissue is homogenized, after the suspension was centrifuged the supernatant was discarded, the above-described solution wash was repeated for 3 times, centrifuged again and the supernatant was discarded, the precipitate was again mixed in 50 mM Tris-HCL buffer solution, the protein concentration in rat cerebral cortex determined by Coomassie Brilliant Blue Method (Bradford method) was 0.8 mg/ml, the protein content in rat striatum brain tissue homogenate was 1.3 mg/ml.
To a detect tube the HEA with different concentration (10^−9, 10^−8, 10^−7, 10^−6, 10^−5 mol/L) were added, mixed well, then incubated at 25° C. in water bath on shaking table for 30 min, the reaction liquid was drawn by a cell collector, passed the GF/B glass filter membrane (Watman), reaction was terminated, washed 3 times with Tris-HCl buffer solution, each time 3 ml, the filter membrane was removed and dried, then put into a scintillation vial containing 4 ml of scintillation solution to determine radioactivity. A radioactivity count to the filter membrane was conducted by a scintillation counter.

[2] = tested on: mouse spontaneous activity; experiment: mouse spontaneous activity (sedation); assay type: in vivo
Procedure: Male ICR mice were randomly divided into four groups, and adenosine A1R antagonist DPCPX was selected. The mice were divided into solvent group, HEA (15 mg/kg) group, DPCPX (4 mg/kg) and DPCPX+HEA (4 mg/kg+15 mg/kg) group; wherein in DPCPX+HEA group, the mice was peritonealelly injected with the antagonist, after 10 min the HEA was peritoneally injected. After 15 min of drug administration, the mice were put into a single opaque square spontaneous activity box (50 cm×50 cm×40 cm), and foot grating number within 5 min was recorded by video camera. Calculating on the basis of four limbs of the mouse entering the same lattice, as the activity index of the animal.

[3] = tested on: mouse kidney ischemia reperfusion; experiment: kidney ischemia reperfusion: kidney function test (Scr, BUN); assay type: in vivo; conditions: for serum BUN level / serum Scr level: 24 h after ischemia reperfusion, vs IR group, ip pretreatment, HEA 5, 7.5, 10 mg/kg, DPCPX 1 mg/kg, DPCPX 1 mg/kg+HEA 7.5 mg/kg
Procedure: Male C57BL/6 mice 20-25 g, after one week of adaptive feeding to the animals, were randomly divided into eight groups: sham-operation group, IR group, HEA 5 mg/kg group, HEA 7 mg/kg group, HEA 10 mg/kg group, DPCPX (1 mg/kg) group, DPCPX (1 mg/kg)+HEA (5 mg/kg) group and DPCPX (1 mg/kg)+HEA (7.5 mg/kg) group. The mouse was weighed before operation, then peritoneally injected with pentobarbital sodium 50 mg/kg to anaesthetize the mouse, abdomen was opened by ventromedial incision, blunt dissection and the kidney pedicle was sufficiently exposed, renal ischemia was induced by clapping two side kidney pedicle with non-invasive bulldog clamp, the color of kidney change from bright red to purple black immediately, determination method of success of the experiment model can refer to the methods in literature 7 and 8. At time of 30 min of ischemia the bulldog clamp was loosened, the perfuse was restored, the color of kidney changed gradually from dark red to bright red, showing re perfusion was successful. The wound was stitched. The animals were freely fed water and food. In the sham-operation group, the mice only received operation of abdomen open, kidney pedicle and abdomen suture. The kidney IR mode were made for the mice in the remaining groups. In each drug group, before 15 minute of ischemia, the drug with corresponding concentration was speritoneally injected, in drug combination group, 15 minutes before ischemia, the drugs were given simultaneously. At 24 hours after Reperfussion, the mouse was again anaesthetized, obtaining the venous blood. Using full-automatic biochemical analysis systems (Dimension Xpand plus, from Siemens AG), the Scr (serum creatinine) and BUN (blood urea nitrogen) levels were detected respectively by chrysolepic acid rate method and enzymatic rate.

[4] = tested on: mouse PD model induced by MPTP; experiment: MPTP induced mouse PD model: TH positive cells in substantia nigra; assay type: in vivo; conditions: MPTP 30 mg/kg mice; Cordyceps cicadae extract 1500 mg/kg; HEA 10 mg/kg ip; 14 days
Procedure: 24±1 g male C57BL/6 mice were randomly divided into six groups: control group, model group, Cordyceps cicadae extract group (1500 mg/kg) (the extract method can refer to Example 3), HEA (5 mg/kg, 10 mg/kg, 15 mg/kg) group. Using mouse PD model induced by 1-methyl-4-phenyl-[…] (MPTP), in Cordyceps cicadae crude extract group and HEA with different concentration group were respectively peritoneal injected for consecutive 14 days, and at Day 11, before 1 hour of drug administration, MPTP 30 mg/kg was peritoneally injected, for consecutive 4 days, after one day after the last administration, a behavior test of pole-climbing ability was conducted, after 4 days the rat wad killed by puling neck and the striatum was removed. […]
After completion of behaviour detection, the heart was perfuse with 4% paraformaldehyde and the brain was removed, fixed, desiccated, embedded, and different parts in substantia nigra region were removed for coronal sectioned, tyrosine hydroxylase was used as specific marker for the neuron. The primary antibody is monoclonal mouse TH antibody (1;1000, Sigma), and the secondary antibody is Alexa fluor 488 fluorescence labeling goat anti-mouse (1;1000, Molecular Probes). Taking photo by a fluorescence microscope, and the TH positive cell in the substantia nigra were counted.

[5] = target: T2, rat cerebral cortex adenosine A1 receptor (Rattus norvegicus, UniProt P25099); experiment: adenosine A1 receptor ligand binding test ([3H]DPCPX)
T2 construct: DPCPX; from tissue; host or cells: Wistar rat cerebral cortex
T2 sequence (P25099 1-326): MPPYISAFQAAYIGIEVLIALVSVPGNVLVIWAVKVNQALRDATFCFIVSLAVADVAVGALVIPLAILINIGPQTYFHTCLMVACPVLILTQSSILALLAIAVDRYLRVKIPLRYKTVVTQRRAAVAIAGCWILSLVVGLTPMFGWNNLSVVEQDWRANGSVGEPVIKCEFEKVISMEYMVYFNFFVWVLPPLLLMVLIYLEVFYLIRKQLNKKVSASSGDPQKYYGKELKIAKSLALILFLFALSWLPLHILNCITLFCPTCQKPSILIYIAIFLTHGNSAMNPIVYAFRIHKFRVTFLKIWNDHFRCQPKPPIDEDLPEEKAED

[6] = tested on: mouse PD model induced by MPTP; experiment: MPTP induced mouse PD model: pole-climbing method; assay type: in vivo; conditions: MPTP 30 mg/kg mice; Cordyceps cicadae extract 1500 mg/kg; HEA 10 mg/kg ip; 14 days
Procedure: 24±1 g male C57BL/6 mice were randomly divided into six groups: control group, model group, Cordyceps cicadae extract group (1500 mg/kg) (the extract method can refer to Example 3), HEA (5 mg/kg, 10 mg/kg, 15 mg/kg) group. Using mouse PD model induced by 1-methyl-4-phenyl-[…] (MPTP), in Cordyceps cicadae crude extract group and HEA with different concentration group were respectively peritoneal injected for consecutive 14 days, and at Day 11, before 1 hour of drug administration, MPTP 30 mg/kg was peritoneally injected, for consecutive 4 days, after one day after the last administration, a behavior test of pole-climbing ability was conducted, after 4 days the rat wad killed by puling neck and the striatum was removed. The control group was given same amount of normal saline, the model group at Day 11, one hour before the normal saline was given, MPTP 30 mg/kg was peritoneally injected, for four consecutive days.
Heading down, the mouse was placed onto top of a wooden pole with a length of 50 cm, diameter of 10 mm, the time for the mouse clime from top to bottom along the pole was record, the time difference between before and after the modeling was calculate, and analyzed statistically.

[7] = tested on: rat middle cerebral artery distal obstruction cerebral ischemia model; experiment: dMCAO cerebral ischemia: infarct size by TTC staining; assay type: in vivo; conditions: HEA 7.5 mg/kg ip, 24 hours after modeling, vs model group

T1 sequence (P30543 whole entry): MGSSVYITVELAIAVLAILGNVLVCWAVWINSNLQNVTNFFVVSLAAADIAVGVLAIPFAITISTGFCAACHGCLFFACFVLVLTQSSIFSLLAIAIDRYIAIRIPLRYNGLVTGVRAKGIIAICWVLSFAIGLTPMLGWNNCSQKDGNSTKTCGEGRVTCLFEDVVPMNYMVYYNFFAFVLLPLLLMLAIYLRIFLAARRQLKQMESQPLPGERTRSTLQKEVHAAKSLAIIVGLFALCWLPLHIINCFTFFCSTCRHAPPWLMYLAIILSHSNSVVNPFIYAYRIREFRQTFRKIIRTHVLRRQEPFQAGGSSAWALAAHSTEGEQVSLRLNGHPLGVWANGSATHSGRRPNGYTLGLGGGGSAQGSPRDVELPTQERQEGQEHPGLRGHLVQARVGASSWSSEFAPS

Row | Compound | pKi [1] | spontaneous activity number within 5 min ([2]; normal mouse, HEA 15 mg/kg ip, 15 min after administration, vs solvent group) | serum BUN level [3] | serum Scr level [3] | protective effect to mouse kidney ischemia reperfusion impairment ([3]; by serum Scr and BUN level and kidney histopathological change) | number of the TH positive cells in substantia nigra [4] | affinity to adenosine A1 receptor relative to adenosine A2A receptor ([5]; A1 versus A2A) | selectivity to A1 receptor (in words) ([5]; A1 versus A2A binding) | pKi ([5]; rat cerebral cortex homogenate, 0.2 nM [3H]DPCPX, 25° C. 30 min, read-out: Ki value of competitive binding with the adenosine A1 receptor) | multilimb coordination ability (pole-climbing) [6] | infarct size (TTC staining) [7] | effect of DPCPX on sedation of the HEA ([2]; DPCPX 4 mg/kg ip 10 min before HEA 15 mg/kg)
1 | OCCNc1ncnc2c1ncn2[C@@H]1O[C@H](CO)[C@@H](O)[C@H]1O [HEA, N(6)-(2-hydroxyethyl)-adenosine] | ~5.05 | significant; also recorded: significantly reduce spontaneous activity number of normal mouse within 5 min | significantly reduce | significantly reduce | has protective effect to mouse kidney ischemia reperfusion impairment | increase number of the TH positive cells | 100 fold | high selectivity to A1 receptor | 7.05 | improve multilimb coordination ability of mouse to different degree | significantly reduce cerebral infarction area; also recorded: significantly reduce the infarct size of the injured brain | 
2 | CCCn1c(=O)c2[nH]c(C3CCCC3)nc2n(CCC)c1=O [DPCPX, reference compound] |  |  | significantly increase | significantly increase |  |  |  |  |  |  |  | sedation of the HEA is significantly antagonized
